Values belong to the compound of their own block, whether it stands above or below them.
What was measured:
M4 muscarinic receptor = molecular target: T1, M4 muscarinic receptor (Homo sapiens, UniProt P08173); experiment: Functional mobilization of intracellular calcium (FLIPR) in CHO cells expressing M4 muscarinic receptor; format: cell-based; conditions: for M4 Activity: CHO cells expressing M4, calcium mobilization; for Emax: CHO, 100% efficacy is the maximum response obtained with the Carbachol control
T1 construct: expressed in transfected cells; host or cells: CHO (M4-CHO recombinant cell line)
T1 sequence (P08173 1-479): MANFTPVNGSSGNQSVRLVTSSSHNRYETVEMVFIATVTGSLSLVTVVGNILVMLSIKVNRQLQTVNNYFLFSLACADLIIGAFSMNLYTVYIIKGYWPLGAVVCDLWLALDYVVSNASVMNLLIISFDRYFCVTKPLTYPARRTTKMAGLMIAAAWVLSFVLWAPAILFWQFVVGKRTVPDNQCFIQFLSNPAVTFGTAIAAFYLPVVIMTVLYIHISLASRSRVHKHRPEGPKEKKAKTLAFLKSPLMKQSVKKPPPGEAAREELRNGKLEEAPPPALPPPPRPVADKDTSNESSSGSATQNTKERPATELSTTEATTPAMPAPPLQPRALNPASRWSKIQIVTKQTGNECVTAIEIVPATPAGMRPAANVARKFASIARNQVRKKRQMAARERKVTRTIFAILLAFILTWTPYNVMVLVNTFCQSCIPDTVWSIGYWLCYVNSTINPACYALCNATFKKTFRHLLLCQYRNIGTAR
Description: (§1) VI. Assays for Detecting and Measuring Inhibition Properties of Compounds Functional Mobilization of Intracellular Calcium to Determine Muscarinic Receptor Activity:
(§2) CHO cells expressing muscarinic receptors (M1 to M5) are grown as monolayers in tissue culture flasks at 37° C. in a humidified atmosphere containing 5% CO2 and passaged every 3-5 days. The growth media is Dulbecco's modified eagles medium (DMEM, Gibco Cat# 12430-054), containing 25 mM Hepes and supplemented with Fetal Bovine Serum (Hyclone, cat# SH30071.03), 0.1 mM of MEM non-essential amino acids (GIBCO, Cat# 11140-050), 1 mM MEM Sodium Pyruvate (GIBCO Cat# 11360-070) and 100 units/ml of Penicillin G and 100 μg/ml of Streptomycin (GIBCO Cat# 15140-122). The recombinant muscarinic receptor cell lines are grown under antibiotic pressure with media containing 25 μg/ml zeocin and 500 μg/ml G418 (M1-CHO), 4 μg/ml puromycin, 50 μg/ml zeocin and 2.5 μg/ml blasticidin (M2 and M4-CHO) or 50 μg/ml zeocin and 4 μg/ml puromycin (M3 and M5-CHO).
(§3) Cells are harvested at 80-90% confluence using Versene (GIBCO Cat# 15040-066), collected by centrifugation and seeded 18-24 hours prior to running the calcium assay at a density of 5,000-10,000 cells/well in […], clear-bottomed 384-well plates (BD Biocoat, poly-D-lysine, Cat#356663). The day of the experiment, the cells are washed with a plate washer (Bioteck Instruments, ELX 405) using bath buffer (140-mM NaCl, 4.5-mM KCl, 2-mM CaCl2, 1-mM MgCl2, 10-mM Hepes-Na, 10-mM Glucose, pH 7.4, with NaOH) containing 1 mM Probenecid. Next, the calcium dye Fluo-3 (25 μl/well of Fluo-3 μM at 4 μM, Molecular Probes F-1241, in Bath 1 buffer containing 1 mM Probenecid) is added to the 25 μl of Bath 1 remaining in each well after the plate wash and the dye is loaded at 37° C. in the tissue culture incubator for 60-90 min. The fluorescent dye is removed using the plate washer with Bath 1 containing 1 mM Probenecid, leaving 25 μl/well of this solution after the wash. Alternatively, cells can be loaded with the calcium indicator from Molecular Devices (Calcium 3 Assay Reagents, Cat # R7181) adding 5 μl of a 5× solution dye in Bath 1 containing 1 mM Probenecid (10 ml per dye flask cat# R7182 to generate a solution 20×) to 20 μl of the same buffer. After loading for 60 min, the experiment can be run without having to remove the dye.
(§4) Compounds are prepared at a 2× fold concentration in a 96-well plate (round bottom, Costar Corning cat# 3656), by reconstituting the pre-spotted compounds in bath 1 containing 1 mM probenecid. The final concentration DMSO is 0.5%, and the amount of DMSO is normalized across the assay plate. To determine an agonist action of the compounds on muscarinic receptors, the reconstituted compounds are added (25 μl compound/well) to the cell assay plate (containing 25 μl/well) using the multi-channel robotic system of the FLIPR 3 Instrument (Molecular Devices, Sunnyvale, Calif.). To determine a functional inhibitory-action of the compounds on muscarinic receptors, the reconstituted compounds are added (25 μl compound/well) to the assay plate and pre-incubated for 15 min prior to adding 25 μl of Carbachol at 3× the EC80 for each muscarinic subtype. Alternatively, the compounds can be co-applied simultaneously with the agonist. In both assay modes, the fluorescence is recorded for 60 sec (excitation wavelength is […] and emission wavelength 540 nm) using the FLIPR 3 instrument.
(§5) The potency, efficacy and selectivity of the muscarinic compounds were evaluated by screening the compound activity across the whole family (M1 to M5 cells). Compounds were also screened for activity on other proteins such as other GPCRs and ion channels to determine selectivity on M4 receptors.
(§6) Examples of activities and efficacies of the muscarinic compounds of formulae (I, Ia, and Ib) on modulating M1 and M4 receptors are shown below in Table 8. […]

M1 muscarinic receptor = molecular target: T2, M1 muscarinic receptor (Homo sapiens, UniProt P11229); experiment: Functional mobilization of intracellular calcium (FLIPR) in CHO cells expressing M1 muscarinic receptor; format: cell-based; conditions: for M1 Activity: CHO cells expressing M1, calcium mobilization; for Emax: CHO, 100% efficacy is the maximum response obtained with the Carbachol control
T2 construct: expressed in transfected cells; host or cells: CHO (M1-CHO recombinant cell line)
T2 sequence (P11229 1-460): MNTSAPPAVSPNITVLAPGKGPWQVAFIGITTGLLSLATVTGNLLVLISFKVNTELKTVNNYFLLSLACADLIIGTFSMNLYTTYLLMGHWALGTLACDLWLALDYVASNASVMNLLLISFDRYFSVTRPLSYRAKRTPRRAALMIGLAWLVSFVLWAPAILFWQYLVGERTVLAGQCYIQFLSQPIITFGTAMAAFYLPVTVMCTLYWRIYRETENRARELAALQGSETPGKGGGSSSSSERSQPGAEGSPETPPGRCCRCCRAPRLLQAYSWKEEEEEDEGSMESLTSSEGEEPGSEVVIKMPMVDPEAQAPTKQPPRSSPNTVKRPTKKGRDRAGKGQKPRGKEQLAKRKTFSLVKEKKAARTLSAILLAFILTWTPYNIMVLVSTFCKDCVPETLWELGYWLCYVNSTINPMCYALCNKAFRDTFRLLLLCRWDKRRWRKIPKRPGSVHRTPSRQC
Description: as §1, §2, §3, §4, §5, §6

Structure (SMILES): O=C(O)C1=CC2(CCN(C3C[C@@H]4CC[C@@H]3C4)CC2)c2ccccc21 (stereo in doubt) [Compound No. 48, 1′-(bicyclo[2.2.1]heptan-2-yl)spiro[indene-1,4′-piperidine]-3-carboxylic acid]
M4 Activity (M4 muscarinic receptor): + (activity was measured to be greater than 10.0 μM) | Emax (M4 muscarinic receptor): 25 to 100% | M1 Activity (M1 muscarinic receptor): + (activity was measured to be greater than 10.0 μM) | Emax (M1 muscarinic receptor): 25 to 100%

Structure (SMILES): O=C(C1=CCC2(CCN(CC3CC4C=CC3C4)CC2)c2ccccc21)N1CCCC1 (centres unmarked) [compound 34]
M4 Activity (M4 muscarinic receptor): + (activity was measured to be greater than 10.0 μM) | Emax (M4 muscarinic receptor): < 25% | M1 Activity (M1 muscarinic receptor): +++ (activity was measured to be less than 2.0 μM) | Emax (M1 muscarinic receptor): 25 to 100%

Structure (SMILES): CCC(CC)NC(=O)C1=CC2(CCN(C3CCCCCC3)CC2)c2ccccc21 [Compound No. 3]
M4 Activity (M4 muscarinic receptor): ++ (activity was measured to be from 2.0 μM to 10.0 μM) | Emax (M4 muscarinic receptor): 25 to 100% | M1 Activity (M1 muscarinic receptor): + (activity was measured to be greater than 10.0 μM) | Emax (M1 muscarinic receptor): < 25%

Structure (SMILES): CCC(CC)NC(=O)C1=CC2(CCN(CCC3CCOCC3)CC2)c2ccccc21 [compound 53]
M4 Activity (M4 muscarinic receptor): +++ (activity was measured to be less than 2.0 μM) | Emax (M4 muscarinic receptor): 25 to 100% | M1 Activity (M1 muscarinic receptor): + (activity was measured to be greater than 10.0 μM) | Emax (M1 muscarinic receptor): < 25%

Structure (SMILES): C=CCOC(=O)N1CCC(N2CCC3(C=C(C(=O)NC(CC)CC)c4ccccc43)CC2)CC1 [compound 24]
M4 Activity (M4 muscarinic receptor): ++ (activity was measured to be from 2.0 μM to 10.0 μM) | Emax (M4 muscarinic receptor): 25 to 100% | M1 Activity (M1 muscarinic receptor): + (activity was measured to be greater than 10.0 μM) | Emax (M1 muscarinic receptor): 25 to 100%

Structure (SMILES): CCC(CC)NC(=O)C1=CC2(CCN(C3CCN(C(=O)C4CC4)CC3)CC2)c2ccccc21 [compound 45]
M4 Activity (M4 muscarinic receptor): + (activity was measured to be greater than 10.0 μM) | Emax (M4 muscarinic receptor): 25 to 100% | M1 Activity (M1 muscarinic receptor): + (activity was measured to be greater than 10.0 μM) | Emax (M1 muscarinic receptor): < 25%

Structure (SMILES): CNC(=O)C1=CC2(CCN(CCC(C)(C)C)CC2)c2ccccc21 [Compound No. 27, 1′-(3,3-dimethylbutyl)-N-methylspiro[indene-1,4′-piperidine]-3-carboxamide]
M4 Activity (M4 muscarinic receptor): +++ (activity was measured to be less than 2.0 μM) | Emax (M4 muscarinic receptor): 25 to 100% | M1 Activity (M1 muscarinic receptor): +++ (activity was measured to be less than 2.0 μM) | Emax (M1 muscarinic receptor): 25 to 100%

Structure (SMILES): CCC(CC)NC(=O)C1=CC2(CCN(CCC3CCSCC3)CC2)c2ccccc21 [compound 76]
M4 Activity (M4 muscarinic receptor): + (activity was measured to be greater than 10.0 μM) | Emax (M4 muscarinic receptor): < 25% | M1 Activity (M1 muscarinic receptor): + (activity was measured to be greater than 10.0 μM) | Emax (M1 muscarinic receptor): < 25%

Structure (SMILES): CCC(CC)NC(=O)C1=CC2(CCN(C3CCN(C(C)=O)CC3)CC2)c2ccccc21 [compound 10]
M4 Activity (M4 muscarinic receptor): + (activity was measured to be greater than 10.0 μM) | Emax (M4 muscarinic receptor): < 25% | M1 Activity (M1 muscarinic receptor): + (activity was measured to be greater than 10.0 μM) | Emax (M1 muscarinic receptor): < 25%

Structure (SMILES): CCOC(=O)N1CCC(N2CCC3(C=C(C(=O)NC)c4ccccc43)CC2)CC1 [compound 65]
M4 Activity (M4 muscarinic receptor): +++ (activity was measured to be less than 2.0 μM) | Emax (M4 muscarinic receptor): 25 to 100% | M1 Activity (M1 muscarinic receptor): +++ (activity was measured to be less than 2.0 μM) | Emax (M1 muscarinic receptor): 25 to 100%

Structure (SMILES): CCC(CC)NC(=O)C1=CC2(CCN(C3CCNCC3)CC2)c2ccccc21 [compound 7]
M4 Activity (M4 muscarinic receptor): + (activity was measured to be greater than 10.0 μM) | Emax (M4 muscarinic receptor): < 25% | M1 Activity (M1 muscarinic receptor): + (activity was measured to be greater than 10.0 μM) | Emax (M1 muscarinic receptor): < 25%

Structure (SMILES): CCC(CC)NC(=O)C1=CC2(CCN(C3CCCC3)CC2)c2ccccc21 [compound 17]
M4 Activity (M4 muscarinic receptor): + (activity was measured to be greater than 10.0 μM) | Emax (M4 muscarinic receptor): 25 to 100% | M1 Activity (M1 muscarinic receptor): + (activity was measured to be greater than 10.0 μM) | Emax (M1 muscarinic receptor): < 25%

Emax (M4 muscarinic receptor): < 25% | Emax (M1 muscarinic receptor): < 25%
Structure (SMILES): CCC(CC)NC(=O)C1=CC2(CCNCC2)c2ccccc21 [compound 57]
M4 Activity (M4 muscarinic receptor): + (activity was measured to be greater than 10.0 μM) | M1 Activity (M1 muscarinic receptor): + (activity was measured to be greater than 10.0 μM)

Structure (SMILES): CCC(CC)NC(=O)C1=CC2(CCN(CC3CCCCC3)CC2)c2ccccc21 [Compound No. 68, 1′-(cyclohexylmethyl)-N-(pentan-3-yl)spiro[indene-1,4′-piperidine]-3-carboxamide]
Emax (M4 muscarinic receptor): 25 to 100% | Emax (M1 muscarinic receptor): < 25%

Structure (SMILES): CNC(=O)C1=CC2(CCN(CCC3CCOCC3)CC2)c2ccccc21 [compound 8]
M4 Activity (M4 muscarinic receptor): + (activity was measured to be greater than 10.0 μM) | Emax (M4 muscarinic receptor): < 25% | M1 Activity (M1 muscarinic receptor): + (activity was measured to be greater than 10.0 μM) | Emax (M1 muscarinic receptor): 25 to 100%

Structure (SMILES): CC(C)(C)CCN1CCC2(C=C(C(=O)NC3CCCCC3)c3ccccc32)CC1 [compound 25]
M4 Activity (M4 muscarinic receptor): + (activity was measured to be greater than 10.0 μM) | Emax (M4 muscarinic receptor): < 25% | M1 Activity (M1 muscarinic receptor): ++ (activity was measured to be from 2.0 μM to 10.0 μM) | Emax (M1 muscarinic receptor): 25 to 100%

Structure (SMILES): CC(C)NC(=O)C1=CC2(CCN(CCC(C)(C)C)CC2)c2ccccc21 [compound 70]
M4 Activity (M4 muscarinic receptor): + (activity was measured to be greater than 10.0 μM) | Emax (M4 muscarinic receptor): 25 to 100% | M1 Activity (M1 muscarinic receptor): + (activity was measured to be greater than 10.0 μM) | Emax (M1 muscarinic receptor): 25 to 100%

Structure (SMILES): CCOC(=O)N1C2CCC1CC(N1CCC3(CC=C(C(=O)N4CCCC4)c4ccccc43)CC1)C2 (centres unmarked) [compound 5]
M4 Activity (M4 muscarinic receptor): +++ (activity was measured to be less than 2.0 μM) | Emax (M4 muscarinic receptor): 25 to 100% | M1 Activity (M1 muscarinic receptor): +++ (activity was measured to be less than 2.0 μM) | Emax (M1 muscarinic receptor): 25 to 100%

Structure (SMILES): CN(C)C(=O)C1=CC2(CCN(C3CCCCCC3)CC2)c2ccccc21 [compound 44]
M4 Activity (M4 muscarinic receptor): +++ (activity was measured to be less than 2.0 μM) | Emax (M4 muscarinic receptor): 25 to 100% | M1 Activity (M1 muscarinic receptor): + (activity was measured to be greater than 10.0 μM) | Emax (M1 muscarinic receptor): 25 to 100%
